Measurements published in article PMC10364322, “Evaluation of chronic drug-induced electrophysiological and cytotoxic effects using human-induced pluripotent stem cell-derived cardiomyocytes (hiPSC-CMs)” (Frontiers in Pharmacology, 2023).
Like-named read-outs stand apart in the source and are kept apart here.

Tested on: hiPSC-CMs (iCell-Cardiomyocytes^2)
Summary of the method: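 Monolayers of hiPSC-CMs on fibronectin-coated MEA plates, 50 K/well, kept at 37°C, 5% CO2; compounds added in 0.1% final DMSO after 5-min baseline. Field potential and impedance parameters expressed as mean ± SD percent change from baseline; arrhythmic events noted; cytotoxicity fluorescence normalized to DMSO, Kruskal-Wallis.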

## Cc1cn(-c2cc(NC(=O)c3ccc(C)c(Nc4nccc(-c5cccnc5)n4)c3)cc(C(F)(F)F)c2)cn1 [Nilotinib]
0.3 µM, 2h
  Beating below threshold, number of observations/total well numbers: 0/5
  Cessation of beating, number of observations/total well numbers: 0/5
  EAD, number of observations/total well numbers: 0/5
  FPD (field-potential duration), % change from baseline: 22.4±5.4 %
  FPDc (field-potential duration corrected by beat-rate), % change from baseline: 20.8±5.2 %
  Flat T-wave-like, number of observations/total well numbers: 0/5
0.3 µM, 24h
  BR (beat rate) % change from baseline: -17±2 %
  Beating below threshold, number of observations/total well numbers: 0/5
  Cessation of beating, number of observations/total well numbers: 0/5
  EAD, number of observations/total well numbers: 0/5
  FPD (field-potential duration), % change from baseline: 61.6±9.1 %
  FPDc (field-potential duration corrected by beat-rate), % change from baseline: 52.4±8.3 %
  Flat T-wave-like, number of observations/total well numbers: 0/5
0.3 µM, 48h
  BR (beat rate) % change from baseline: -13±1%
  Beating below threshold, number of observations/total well numbers: 0/5
  Cessation of beating, number of observations/total well numbers: 0/5
  EAD, number of observations/total well numbers: 0/5
  FPD (field-potential duration), % change from baseline: 46.7±15.8 %
  FPDc (field-potential duration corrected by beat-rate), % change from baseline: 39.9±14.5 %
  Flat T-wave-like, number of observations/total well numbers: 0/5
0.3 µM, 72h
  BR (beat rate) % change from baseline: -19±3 %
  Beating below threshold, number of observations/total well numbers: 0/5
  Cessation of beating, number of observations/total well numbers: 0/5
  EAD, number of observations/total well numbers: 0/5
  FPD (field-potential duration), % change from baseline: 59.3±17.6 %
  FPDc (field-potential duration corrected by beat-rate), % change from baseline: 48.5±15 %
  Flat T-wave-like, number of observations/total well numbers: 0/5
0.3 µM, 96h
  BR (beat rate) % change from baseline: -23±2%
  Beating below threshold, number of observations/total well numbers: 0/5
  Cessation of beating, number of observations/total well numbers: 0/5
  EAD, number of observations/total well numbers: 0/5
  FPD (field-potential duration), % change from baseline: 57±11 %
  FPDc (field-potential duration corrected by beat-rate), % change from baseline: 44.7±10.1 %
  Flat T-wave-like, number of observations/total well numbers: 1/5
1 µM
  wells displaying EAD-like events: one of five wells
1 µM, 2h
  BR (beat rate) % change from baseline: -15±5 %
  Beating below threshold, number of observations/total well numbers: 0/5
  Cessation of beating, number of observations/total well numbers: 0/5
  EAD, number of observations/total well numbers: 1/5
  FPD (field-potential duration), % change from baseline: 80.6±28.8 %
  FPDc (field-potential duration corrected by beat-rate), % change from baseline: 70.6±24.2 %
  Flat T-wave-like, number of observations/total well numbers: 0/5
1 µM, 24h
  BR (beat rate) % change from baseline: -42±3 %
  Beating below threshold, number of observations/total well numbers: 0/5
  Cessation of beating, number of observations/total well numbers: 0/5
  EAD, number of observations/total well numbers: 1/5
  FPD (field-potential duration), % change from baseline: 264.1±51.3 %
  FPDc (field-potential duration corrected by beat-rate), % change from baseline: 200.7±36.5 %
  Flat T-wave-like, number of observations/total well numbers: 2/5
1 µM, 48h
  BR (beat rate) % change from baseline: -37±3 %
  Beating below threshold, number of observations/total well numbers: 0/5
  Cessation of beating, number of observations/total well numbers: 0/5
  EAD, number of observations/total well numbers: 1/5
  FPD (field-potential duration), % change from baseline: 209.3±40.8 %
  FPDc (field-potential duration corrected by beat-rate), % change from baseline: 164.9±31.8 %
1 µM, 72h
  BR (beat rate) % change from baseline: -44±3 %
  Beating below threshold, number of observations/total well numbers: 0/5
  Cessation of beating, number of observations/total well numbers: 0/5
  EAD, number of observations/total well numbers: 1/5
  FPD (field-potential duration), % change from baseline: 260.2±58.2 %
  FPDc (field-potential duration corrected by beat-rate), % change from baseline: 196.4±43 %
  Flat T-wave-like, number of observations/total well numbers: 1/5
1 µM, 96h
  BR (beat rate) % change from baseline: -43±3 %
  Beating below threshold, number of observations/total well numbers: 0/5
  Cessation of beating, number of observations/total well numbers: 0/5
  EAD, number of observations/total well numbers: 1/5
  FPD (field-potential duration), % change from baseline: 208.7±49.5 %
  FPDc (field-potential duration corrected by beat-rate), % change from baseline: 156.3±38.4 %
  Flat T-wave-like, number of observations/total well numbers: 1/5
1 and 0.3 µM, acute and chronic time points
  prolongation of FPD: significant dose-dependent prolongation of the FPD
Any concentration
  cessation of beating: no cessation of beating occurred in any concentration
